Measurements as given in ChEMBL document CHEMBL2380193, “New trifluoromethyl quinolone derivatives: synthesis and investigation of antimicrobial properties” (2013).
In brackets after ≈: the same amount, converted by molar mass.

Experiments:
Aspergillus fumigatus [1] = test: Antifungal activity against Aspergillus fumigatus MTCC 343 after 30 hrs by serial dilution method; format: functional; settings: MTCC 343, 30 h
Salmonella typhi [2] = test: Antibacterial activity against Salmonella typhi MTCC 733 after 14 hrs by serial dilution method; format: functional, Salmonella enterica subsp. enterica serovar Typhi; settings: Salmonella enterica, MTCC 733, 14 h
Escherichia coli [3] = test: Antibacterial activity against Escherichia coli MTCC 443 assessed as zone of inhibition at 100 ug/ml after 14 hrs by cup plate method; format: functional; settings: MTCC 443, 14 h, read-out: IZ
Salmonella typhi [4] = test: Antibacterial activity against Salmonella typhi MTCC 733 assessed as zone of inhibition at 100 ug/ml after 14 hrs by cup plate method; format: functional, Salmonella enterica subsp. enterica serovar Typhi; settings: Salmonella enterica, MTCC 733, 14 h; read-out: IZ
Candida albicans [5] = test: Antifungal activity against Candida albicans MTCC 227 after 30 hrs by serial dilution method; format: functional; settings: MTCC 227, 30 h
Klebsiella pneumoniae [6] = test: Antibacterial activity against Klebsiella pneumoniae MTCC 432 after 14 hrs by serial dilution method; format: functional; settings: MTCC 432, 14 h
Aspergillus flavus [7] = test: Antifungal activity against Aspergillus flavus MTCC 277 after 30 hrs by serial dilution method; format: functional; settings: MTCC 277, 30 h
Escherichia coli [8] = test: Antibacterial activity against Escherichia coli MTCC 443 after 14 hrs by serial dilution method; format: functional; settings: MTCC 443, 14 h
Aspergillus niger [9] = test: Antifungal activity against Aspergillus niger MTCC 282 after 30 hrs by serial dilution method; format: functional; settings: MTCC 282, 30 h
Aspergillus niger [10] = test: Antifungal activity against Aspergillus niger MTCC 282 assessed as zone of inhibition at 100 ug/ml after 30 hrs by cup plate method; format: functional; settings: MTCC 282, 30 h, read-out: IZ
Bacillus subtilis [11] = test: Antibacterial activity against Bacillus subtilis MTCC 441 assessed as zone of inhibition at 100 ug/ml after 14 hrs by cup plate method; format: functional; settings: MTCC 441, 14 h, read-out: IZ
Staphylococcus aureus [12] = test: Antibacterial activity against Staphylococcus aureus MTCC 096 assessed as zone of inhibition at 100 ug/ml after 14 hrs by cup plate method; format: functional; settings: MTCC 096, 14 h, read-out: IZ
Aspergillus fumigatus [13] = test: Antifungal activity against Aspergillus fumigatus MTCC 343 assessed as zone of inhibition at 100 ug/ml after 30 hrs by cup plate method; format: functional; settings: MTCC 343, 30 h, read-out: IZ
Klebsiella pneumoniae [14] = test: Antibacterial activity against Klebsiella pneumoniae MTCC 432 assessed as zone of inhibition at 100 ug/ml after 14 hrs by cup plate method; format: functional; settings: MTCC 432, 14 h, read-out: IZ
Bacillus subtilis [15] = test: Antibacterial activity against Bacillus subtilis MTCC 441 after 14 hrs by serial dilution method; format: functional; settings: MTCC 441, 14 h
Aspergillus flavus [16] = test: Antifungal activity against Aspergillus flavus MTCC 277 assessed as zone of inhibition at 100 ug/ml after 30 hrs by cup plate method; format: functional; settings: MTCC 277, 30 h, read-out: IZ
Staphylococcus aureus [17] = test: Antibacterial activity against Staphylococcus aureus MTCC 096 after 14 hrs by serial dilution method; format: functional; settings: MTCC 096, 14 h
Candida albicans [18] = test: Antifungal activity against Candida albicans MTCC 227 assessed as zone of inhibition at 100 ug/ml after 30 hrs by cup plate method; format: functional; settings: MTCC 227, 30 h, read-out: IZ

SMILES	MIC (Aspergillus fumigatus [1])	MIC (Salmonella typhi [2])	zone of inhibition at 100 µg/mL (Escherichia coli [3])	zone of inhibition at 100 µg/mL (Salmonella typhi [4])	MIC (Candida albicans [5])	MIC (Klebsiella pneumoniae [6])	MIC (Aspergillus flavus [7])	MIC (Escherichia coli [8])	MIC (Aspergillus niger [9])	zone of inhibition at 100 µg/mL (Aspergillus niger [10])	zone of inhibition at 100 µg/mL (Bacillus subtilis [11])	zone of inhibition at 100 µg/mL (Staphylococcus aureus [12])	zone of inhibition at 100 µg/mL (Aspergillus fumigatus [13])	zone of inhibition at 100 µg/mL (Klebsiella pneumoniae [14])	MIC (Bacillus subtilis [15])	zone of inhibition at 100 µg/mL (Aspergillus flavus [16])	MIC (Staphylococcus aureus [17])	zone of inhibition at 100 µg/mL (Candida albicans [18])
O=C1c2ccccc2C(=O)N1CCCCn1c(C(F)(F)F)cc(=O)c2ccccc21	25 µg/mL (≈ 60.3 µM)	25 µg/mL (≈ 60.3 µM)	< 10 mm	< 10 mm	6.25 µg/mL (≈ 15.1 µM)	12.5 µg/mL (≈ 30.2 µM)	25 µg/mL (≈ 60.3 µM)	50 µg/mL (≈ 121 µM)	12.5 µg/mL (≈ 30.2 µM)	13 mm	12 mm	13 mm	< 10 mm	13 mm	12.5 µg/mL (≈ 30.2 µM)	< 10 mm	12.5 µg/mL (≈ 30.2 µM)	17 mm
O=C1c2ccccc2C(=O)N1CCCCn1c(C(F)(F)F)cc(=O)c2cc(F)ccc21	12.5 µg/mL (≈ 28.9 µM)	12.5 µg/mL (≈ 28.9 µM)	< 10 mm	13 mm	6.25 µg/mL (≈ 14.5 µM)	12.5 µg/mL (≈ 28.9 µM)	25 µg/mL (≈ 57.8 µM)	50 µg/mL (≈ 116 µM)	6.25 µg/mL (≈ 14.5 µM)	17 mm	13 mm	15 mm	12 mm	13 mm	12.5 µg/mL (≈ 28.9 µM)	< 10 mm	6.25 µg/mL (≈ 14.5 µM)	17 mm
Cc1ccc2c(c1)c(=O)cc(C(F)(F)F)n2CCCCN1C(=O)c2ccccc2C1=O	25 µg/mL (≈ 58.4 µM)	12.5 µg/mL (≈ 29.2 µM)	< 10 mm	13 mm	6.25 µg/mL (≈ 14.6 µM)	12.5 µg/mL (≈ 29.2 µM)	12.5 µg/mL (≈ 29.2 µM)	25 µg/mL (≈ 58.4 µM)	12.5 µg/mL (≈ 29.2 µM)	12 mm	15 mm	15 mm	< 10 mm	13 mm	6.25 µg/mL (≈ 14.6 µM)	12 mm	6.25 µg/mL (≈ 14.6 µM)	15 mm
